{"source": "paper doi:10.1101/2025.02.28.640722v1", "about": "(biorxiv, 2025)", "target": "Human mitochondrial ClpP (hClpP) (Homo sapiens, UniProt Q16740)", "sequence (Q16740 57-277)": "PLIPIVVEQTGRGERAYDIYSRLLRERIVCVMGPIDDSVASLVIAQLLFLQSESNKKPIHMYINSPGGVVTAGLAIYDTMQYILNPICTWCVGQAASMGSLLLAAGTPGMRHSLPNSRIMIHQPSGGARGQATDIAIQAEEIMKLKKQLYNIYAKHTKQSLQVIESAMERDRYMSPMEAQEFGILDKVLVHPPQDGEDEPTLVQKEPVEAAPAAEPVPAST", "test": "peptidase activation", "type": "biochemical", "conditions": "activator at 1.5 mM, 200 nM human ClpP, no ATPase partner", "note": "Square brackets hold non-standard residues; d marks the D form. Peptide text beside a SMILES is read from it. * marks the point of attachment. hCha = N[C@@H](CCC1CCCCC1)C(=O)O; Bz = O=C(c1ccccc1)*"}
{"smiles": "CC[C@H](C)[C@H](NC(=O)[C@H](CCC1CCCCC1)NC(=O)c1ccccc1)C(=O)O", "note": "[Bz-ChEtg-Ile] (Bz-[hCha]-Ile-OH)", "values": [{"measurement": "fold activation", "value": ">15", "unit": "times"}]}
